Patent US6737383B1, “Herbicidal oxadiazolidines” (priority 1999, dated 2004)

How the values were obtained:
Details in all cases: Preemergence
bedstraw = assay: Test B pre/postemergence bedstraw; assay type: in vivo, Galium aparine
Procedure, shortened: (§1)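 Herbicidal effect was estimated by eye on a ten-point control scale after plants spent twelve to sixteen days in a greenhouse following soil or foliar treatment. Foliar sprays targeted plants at one to four leaves; all doses were formulated in a non-phytotoxic solvent with surfactant.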

blackgrass = assay: Test B pre/postemergence blackgrass; assay type: in vivo, Alopecurus myosuroides
Procedure, shortened: as §1

surinam grass = assay: Test B pre/postemergence surinam grass; assay type: in vivo, Brachiaria decumbens
Procedure, shortened: as §1

cocklebur = assay: Test B pre/postemergence cocklebur; assay type: in vivo, Xanthium strumarium
Procedure, shortened: as §1

corn = assay: Test B pre/postemergence corn; assay type: in vivo, Zea mays
Procedure, shortened: as §1

crabgrass = assay: Test B pre/postemergence crabgrass; assay type: in vivo, Digitaria sanguinalis
Procedure, shortened: as §1

giant foxtail = assay: Test B pre/postemergence giant foxtail; assay type: in vivo, Setaria faberii
Procedure, shortened: as §1

morningglory = assay: Test B pre/postemergence morningglory; assay type: in vivo, Ipomoea hederacea
Procedure, shortened: as §1

pigweed = assay: Test B pre/postemergence pigweed; assay type: in vivo, Amaranthus retroflexus
Procedure, shortened: as §1

rape = assay: Test B pre/postemergence rape; assay type: in vivo, Brassica napus
Procedure, shortened: as §1

soybean = assay: Test B pre/postemergence soybean; assay type: in vivo, Glycine max
Procedure, shortened: as §1

sugar beet = assay: Test B pre/postemergence sugar beet; assay type: in vivo, Beta vulgaris
Procedure, shortened: as §1

velvetleaf = assay: Test B pre/postemergence velvetleaf; assay type: in vivo, Abutilon theophrasti
Procedure, shortened: as §1

wheat = assay: Test B pre/postemergence wheat; assay type: in vivo, Triticum aestivum
Procedure, shortened: as §1

wild oat = assay: Test B pre/postemergence wild oat; assay type: in vivo, Avena fatua
Procedure, shortened: as §1

purple nutsedge = assay: Test B pre/postemergence purple nutsedge; assay type: in vivo, Cyperus rotundus
Procedure, shortened: as §1

[1] = Rate 125 g/ha, scale of 0 to 10 where 0 is no effect and 10 is complete control
[2] = Rate 250 g/ha, scale 0 (no effect) to 10 (complete control)
[3] = Rate 500 g/ha, scale 0 to 10 (0 no effect, 10 complete control)

CCOC(CC)n1c(=O)on(C(=O)N(c2ccc(F)cc2)C(C)C)c1=O (stereo not shown) [Compound 742]
0: Plant response rating, Bedstraw (bedstraw; [1]) | Bedstraw plant response rating (bedstraw; [2]) | Bedstraw plant response rating (bedstraw; Rate 62 g/ha, scale 0 to 10) | Bedstraw plant response rating (bedstraw; [3]) | Plant response rating, Blackgrass (blackgrass; [1]) | Blackgrass plant response rating (blackgrass; [2]) | Blackgrass plant response rating (blackgrass; Rate 62 g/ha, scale 0 to 10) | Blackgrass plant response rating (blackgrass; [3]) | B. signalgrass plant response rating (surinam grass; Rate 62 g/ha, scale of 0 to 10 where 0 is no effect and 10 is complete control) | Plant response rating, B. signalgrass (surinam grass; [1]) | B. signalgrass plant response rating (surinam grass; [2]) | B. signalgrass plant response rating (surinam grass; [3]) | Plant response rating, Cocklebur (cocklebur; [1]) | Cocklebur plant response rating (cocklebur; [2]) | Cocklebur plant response rating (cocklebur; Rate 62 g/ha, scale 0 to 10) | Cocklebur plant response rating (cocklebur; [3]) | Plant response rating, Corn (corn; [1]) | Corn plant response rating (corn; [2]) | Corn plant response rating (corn; Rate 62 g/ha, scale 0 to 10) | Corn plant response rating (corn; [3]) | Plant response rating, Crabgrass (crabgrass; [1]) | Crabgrass plant response rating (crabgrass; [2]) | Crabgrass plant response rating (crabgrass; Rate 62 g/ha, scale 0 to 10) | Crabgrass plant response rating (crabgrass; [3]) | Plant response rating, Giant foxtail (giant foxtail; [1]) | Giant foxtail plant response rating (giant foxtail; [2]) | Giant foxtail plant response rating (giant foxtail; Rate 62 g/ha, scale 0 to 10) | Giant foxtail plant response rating (giant foxtail; [3]) | Plant response rating, Morningglory (morningglory; [1]) | Morningglory plant response rating (morningglory; [2]) | Morningglory plant response rating (morningglory; Rate 62 g/ha, scale 0 to 10) | Morningglory plant response rating (morningglory; [3]) | Plant response rating, Redroot pigweed (pigweed; [1]) | Redroot pigweed plant response rating (pigweed; [2]) | Redroot pigweed plant response rating (pigweed; Rate 62 g/ha, scale 0 to 10) | Redroot pigweed plant response rating (pigweed; [3]) | Plant response rating, Rape (rape; [1]) | Rape plant response rating (rape; [2]) | Rape plant response rating (rape; Rate 62 g/ha, scale 0 to 10) | Rape plant response rating (rape; [3]) | Plant response rating, Soybean (soybean; [1]) | Soybean plant response rating (soybean; [2]) | Soybean plant response rating (soybean; Rate 62 g/ha, scale 0 to 10) | Soybean plant response rating (soybean; [3]) | Plant response rating, Sugarbeets (sugar beet; [1]) | Sugarbeets plant response rating (sugar beet; [2]) | Sugarbeets plant response rating (sugar beet; Rate 62 g/ha, scale 0 to 10) | Sugarbeets plant response rating (sugar beet; [3]) | Plant response rating, Velvetleaf (velvetleaf; [1]) | Velvetleaf plant response rating (velvetleaf; [2]) | Velvetleaf plant response rating (velvetleaf; Rate 62 g/ha, scale 0 to 10) | Velvetleaf plant response rating (velvetleaf; [3]) | Plant response rating, Wheat (wheat; [1]) | Wheat plant response rating (wheat; [2]) | Wheat plant response rating (wheat; Rate 62 g/ha, scale 0 to 10) | Wheat plant response rating (wheat; [3]) | Plant response rating, Wild oats (wild oat; [1]) | Wild oats plant response rating (wild oat; [2]) | Wild oats plant response rating (wild oat; Rate 62 g/ha, scale 0 to 10) | Wild oats plant response rating (wild oat; [3]) | Plant response rating, Nutsedge (purple nutsedge; [1]) | Nutsedge plant response rating (purple nutsedge; [2]) | Nutsedge plant response rating (purple nutsedge; Rate 62 g/ha, scale 0 to 10) | Nutsedge plant response rating (purple nutsedge; [3])
